Experimental data as given in patent publication US8999956B2, “N-[(het)arylalkyl)] pyrazole(thio)carboxamides and their heterosubstituted analogues” (Bayer Intellectual Property GmbH, priority 2010, dated 2015).

How the values were obtained:
Alternaria solani = assay: In vivo preventive test on Alternaria solani (tomato); details: 500 ppm of active ingredient, evaluated 7 days after inoculation
Description: (§1) Solvent: 49 parts by weight of N,N-dimethylformamide Emulsifier: 1 part by weight of Alkylarylpolyglycolether To produce a suitable preparation of active compound, 1 part by weight of active compound is mixed with the stated amounts of solvent and emulsifier, and the concentrate is diluted with water to the desired concentration. To test for preventive activity, young plants are sprayed with the preparation of active compound at the stated rate of application. One day after this treatment, the plants are inoculated with an aqueous spore suspension of Alternaria solani.

Pyrenophora teres = assay: In vivo preventive test on Pyrenophora teres (barley); details: 500 ppm of active ingredient, evaluated 7-9 days after inoculation
Procedure, shortened: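 Preventive test: young barley plants received a water-diluted spray of compound formulated with DMF solvent plus alkylaryl polyglycol ether emulsifier, at the stated rate. Inoculation with an aqueous spore suspension of Pyrenophora teres followed one day after spraying.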

[1] = test system: aflatoxines produced by Aspergillus parasiticus; assay: microbe, parasite or virus in culture; assay type: cell-based
Aspergillus parasiticus = assay: microbe, parasite or virus in culture; assay type: cell-based
[2] = log P by HPLC on reversed-phase column (EEC Directive 79/831 Annex V.A8); assay type: physicochemical
Description: In table 1, the log P values were determined in accordance with EEC Directive 79/831 Annex V.A8 by HPLC (High Performance Liquid Chromatography) on a reversed-phase column (C18), using the method described below: Temperature: 40° C.; […]

Sphaerotheca fuliginea = assay: In vivo preventive test on Sphaerotheca fuliginea (cucumber); details: 500 ppm of active ingredient, evaluated 7 days after inoculation
Description: as §1, with “Sphaerotheca fuliginea. Then the plants are placed in a greenhouse at approximately 23° C. and a relative atmospheric humidity of approximately 70%.” for “Alternaria solani.”

Puccinia triticina = assay: In vivo preventive test on Puccinia triticina (wheat); details: for pest or weed control at 500 ppm: Puccinia triticina, 192 h, read-out: Efficacy
[3] = Table K, 500 ppm of active ingredient, evaluated 8 days after inoculation
[4] = 500 ppm of active ingredient, evaluated 8 days after inoculation
[5] = Table K6, dose 500 ppm, comparison with des-fluoro analogues

SMILES | Efficacy (Alternaria solani) [%] | Efficacy (Pyrenophora teres) [%] | % Inhibition of Aflatoxin at 50 μM [1] [%] | % Inhibition of fungal growth at 50 μM (Aspergillus parasiticus) [%] | logP [2] | Efficacy (Sphaerotheca fuliginea) [%] | Efficacy (Puccinia triticina; [3]) [%] | Efficacy (Puccinia triticina; [4]) | Efficacy (Puccinia triticina; [5]) [%] | pest or weed control at 500 ppm (Puccinia triticina; [5]) [%]
CC(CSc1ccc(Cl)cc1Cl)NC(=O)c1c(C(F)F)nn(C)c1F (centres unmarked) [Example 191] | 95 | 100 | 100 | 100 | 3.76 | – | – | – | – | –
CC(CSc1ccc(Cl)cc1Cl)NC(=O)c1c(C(F)F)nn(C)c1Cl (centres unmarked) [Example 192] | 95 | 100 | 100 | 91 | 4.01 | – | – | – | – | –
Cn1nc(C(F)F)c(C(=O)NC(COc2ccc(Cl)cc2Cl)C2CC2)c1F (centres unmarked) [Example 193] | 95 | 94 | 100 | 92 | 3.92 | – | – | – | – | –
Cn1nc(C(F)F)c(C(=O)NC(C)(C)CCc2ccc(Cl)cc2Cl)c1F [Example 196] | 95 | 100 | 100 | 91 | 4.39 | 75 | – | – | – | –
CC(CCc1c(Cl)cc(Cl)cc1Cl)N(C(=O)c1c(C(F)F)nn(C)c1Cl)C1CC1 (centres unmarked) [Example 214] | 80 | 100 | 100 | 93 | 4.31 | – | – | – | – | –
CC(CCc1ccccc1C(F)(F)F)N(C(=O)c1c(C(F)F)nn(C)c1Cl)C1CC1 (centres unmarked) [Example 220] | 95 | 100 | – | – | 4.26 | – | 90 | – | – | –
CCC(COc1cccc2ccccc12)NC(=O)c1c(C(F)F)nn(C)c1F (centres unmarked) [Example 222] | 90 | 90 | 91 | 78 | 3.71 | – | – | – | – | –
Cn1nc(C(F)F)c(C(=O)NC2CCCCC2Oc2ccccc2)c1Cl (centres unmarked) [Example 246] | – | – | – | – | 3.76 | – | 95 | – | – | –
Cc1cccc(OC2CCCC2NC(=O)c2c(C(F)F)nn(C)c2F)c1 (centres unmarked) [Example 259] | 90 | 78 | 97 | 82 | 3.52 | – | – | – | – | –
Cn1nc(C(F)F)c(C(=O)N(C[Si](C)(C)Cc2ccc(Cl)cc2Cl)C2CC2)c1Cl [Example 297] | 100 | 100 | 100 | 85 | 5.19 | – | – | – | – | –
CCC(C)C(C)N(C(=O)c1c(C(F)F)nn(C)c1Cl)C1CC1 (centres unmarked) [Example 303] | 80 | 100 | 100 | 90 | 3.52 | – | – | – | – | –
CC(C)CCC1CCCC1NC(=O)c1c(C(F)F)nn(C)c1Cl (centres unmarked) [Example 309] | 100 | 100 | 100 | 82 | 4.20 | 98 | – | – | – | –
CCC1CCCCC1CNC(=O)c1c(C(F)F)nn(C)c1F (centres unmarked) [Example 364] | 95 | 80 | 99 | 81 | 3.49 | – | – | – | – | –
Cn1nc(C(F)F)c(C(=O)NC2CCCCC2C2CCCCC2)c1F (centres unmarked) [Example 374] | – | – | – | – | 4.34 | – | 100 | total protection | 100 | –
Cc1nn(C)c(F)c1C(=O)NC1CCCCC1C1CCCCC1 (centres unmarked) [compound CMP4, N-[1,1′-bi(cyclohexyl)-2-yl]-5-fluoro-1,3-dimethyl-1H-pyrazole-4-carboxamide, reference compound] | – | – | – | – | – | – | – | no protection | – | 0
Cn1cc(C(=O)NC2CCCCC2C2CCCCC2)c(C(F)F)n1 (centres unmarked) [compound CMP5, N-[1,1′-bi(cyclohexyl)-2-yl]-3-(difluoromethyl)-1-methyl-1H-pyrazole-4-carboxamide, reference compound] | – | – | – | – | – | – | – | no protection | – | 0
